One assay deals with CDK6/cyclin D1 (Homo sapiens (Human), UniProt Q00534). Put plainly: CDK6 Caliper Mobility Shift assay. Format: biochemical. The method, then: (§1) A Caliper Mobility Shift assay was used to determine the inhibitory activities of a compound against CDK4/cyclin D1 and CDK6/cyclin D1 in their respective kinase buffers (CDK4: 20 mM HEPES, pH 7.5, and 0.01% Triton X-100; CDK6: 50 mM HEPES, pH 7.5, and 0.0015% BRIJ-35). The CDK4/cyclin D1 and CDK6/cyclin D1 were obtained from PROQINASE and CARNA, respectively. A FAM-labeled peptide was obtained from GL.
Sequence of CDK6/cyclin D1 (Q00534 whole entry): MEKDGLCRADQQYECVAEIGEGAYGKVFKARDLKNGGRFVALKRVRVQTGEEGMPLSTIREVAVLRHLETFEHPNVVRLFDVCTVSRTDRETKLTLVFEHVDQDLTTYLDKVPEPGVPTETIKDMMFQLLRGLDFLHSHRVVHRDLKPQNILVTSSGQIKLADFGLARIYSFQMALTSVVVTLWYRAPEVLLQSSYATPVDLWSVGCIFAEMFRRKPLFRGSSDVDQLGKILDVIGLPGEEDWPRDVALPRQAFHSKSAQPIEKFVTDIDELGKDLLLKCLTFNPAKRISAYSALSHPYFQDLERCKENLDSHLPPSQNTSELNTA
Sequence of CDK6/cyclin D1 (P24385 whole entry partner): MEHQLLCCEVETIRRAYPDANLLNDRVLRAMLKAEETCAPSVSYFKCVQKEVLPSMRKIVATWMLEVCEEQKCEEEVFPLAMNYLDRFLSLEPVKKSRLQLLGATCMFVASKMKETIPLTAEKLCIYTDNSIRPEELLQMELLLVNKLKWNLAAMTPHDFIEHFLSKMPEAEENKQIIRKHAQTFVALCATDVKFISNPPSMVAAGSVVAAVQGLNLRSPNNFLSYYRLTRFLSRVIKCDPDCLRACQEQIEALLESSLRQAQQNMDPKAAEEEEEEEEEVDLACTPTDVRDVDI
(§2) The compound at predetermined concentrations was pre-incubated with CDK4/cyclin D1 or CDK6/cyclin D1 in a 384-well microplate at room temperature for 10 min. The FAM-labeled peptide and ATP were subsequently added to initiate the kinase reactions. The final enzyme concentrations were 15 nM for CDK4 and 7.5 nM for CDK6. The final ATP concentrations were […] for CDK4 and […] for CDK6. The microplate was allowed to incubate at 28° C. The kinase reactions were stopped by adding a stop buffer (100 mM HEPES, pH 7.5, 0.012% BRIJ-35, 0.2% Coating Reagent 3 (Caliper Life Sciences), and […]). Conversion data were recorded and utilized to calculate the percent inhibition values for each compound and an IC50 value was then determined. The results are summarized in Table 1, where the symbol “***” represents a value no greater than 200 nM, the symbol “**” represents a value greater than 200 nM but no greater than 500 nM, and the symbol “*” represents a value greater than 500 nM.

In the next assay the target is CDK4/cyclin D1 (Homo sapiens (Human), UniProt P11802). Put plainly: CDK4 Caliper Mobility Shift assay. In kind it is biochemical. The method, then:
as §1, §2

Assay [1] deals with MCF-7 human breast cancer cells. The assay is described as follows: CELLTITER-GLO luminescent cell viability assay. In kind it is cell-based. Particulars: MCF7, 192 h, MCF-7 cells, 8 days, read-out: EC50 (Effect on Cell Viability). The method, then: A CELLTITER-GLO luminescent cell viability assay was carried out using MCF-7 human breast cancer cells under the normal growth condition. The MCF-7 human breast cancer cells were grown at 37° C. in a 5% CO2 humidified incubator in EMEM, supplemented 10% FBS, 0.01 mg/mL bovine insulin. The cells were seeded at a 3,000 cells/well in a 96-well tissue culture plate. The cells were allowed to adhere overnight in the incubator. A compound (5 μL) in a medium at a predetermined concentration. After the cells was incubated at 37° C. for 8 days, a CELLTITER-GLO detection solution (100 μL) was added. The cells were mixed on an orbital shaker for 5 min and then incubated for additional 10 min. The plate was read with an ENVISION reader. The results are summarized in Table 2, where the symbol “+++” represents a value no greater than 1 μM, the symbol “++” represents a value greater than 1 μM but no greater than 10 μM, and the symbol “+” represents a value greater than 10 μM.

One may read the IC50 as the concentration needed to halve the response being measured. The EC50 is the concentration needed to bring the measured effect to its halfway point.

Sequence of CDK4/cyclin D1 (P11802 whole entry): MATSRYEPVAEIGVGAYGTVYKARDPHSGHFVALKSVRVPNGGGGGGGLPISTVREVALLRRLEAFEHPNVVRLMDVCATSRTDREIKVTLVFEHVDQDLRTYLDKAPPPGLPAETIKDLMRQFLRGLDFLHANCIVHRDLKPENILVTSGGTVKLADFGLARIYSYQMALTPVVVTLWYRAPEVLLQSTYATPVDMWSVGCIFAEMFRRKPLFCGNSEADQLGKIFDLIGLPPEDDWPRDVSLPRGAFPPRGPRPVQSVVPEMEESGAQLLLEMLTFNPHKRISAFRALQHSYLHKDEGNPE
Sequence of CDK4/cyclin D1 (P24385 whole entry partner): as the sequence (P24385 whole entry partner) above

For `CC(=O)c1c(C)c2cnc(Nc3ccc(N4CCN(S(=O)(=O)O)CC4)cn3)nc2n(C2CCCC2)c1=O` [Compound 6.1, 4-(6-((6-Acetyl-8-cyclopentyl-5-methyl-7-oxo-7,8-dihydropyrido[2,3-d]-pyrimidin-2-yl)amino)pyridin-3-yl)piperazine-1-sulfonic acid], the results for the IC50 at CDK6/cyclin D1 and at CDK4/cyclin D1 were 200 to 500 nM and at most 200 nM, respectively.
Take `CC(=O)c1c(C)c2cnc(Nc3ccc(N4CCN(S(N)(=O)=O)C[C@@H]4C)cn3)nc2n(C2CCCC2)c1=O` [Compound A3, (S)-4-(6-((6-acetyl-8-cyclopentyl-5-methyl-7-oxo-7,8-dihydropyrido[2,3-d]-pyrimidin-2-yl)-amino)pyridin-3-yl)-3-methylpiperazine-1-sulfonamide]: the IC50 on CDK6/cyclin D1 and on CDK4/cyclin D1 was at most 200 nM each time. Moreover, the half-maximal effective concentration (EC50) in assay [1] lay in the range of 1000 to 10000 nM.
For `CC(=O)c1c(C)c2cnc(Nc3ccc(N4CCN(S(N)(=O)=O)CC4)cn3)nc2n(C2CCCC2)c1=O` [Compound A5, 4-(6-((6-acetyl-8-cyclopentyl-5-methyl-7-oxo-7,8-dihydropyrido[2,3-d]pyrimidin-2-yl)amino)pyridin-3-yl)-piperazine-1-sulfonamide], the IC50 on CDK6/cyclin D1 is 200 to 500 nM; on CDK4/cyclin D1, at most 200 nM.
As for `CC(=O)c1c(C)c2cnc(Nc3ccc(N4CCN(S(=O)(=O)NC(=O)OCC(=O)O)CC4)cn3)nc2n(C2CCCC2)c1=O` [Compound A11, 2-((((4-(6-((6-Acetyl-8-cyclopentyl-5-methyl-7-oxo-7,8-dihydropyrido[2,3-d]-pyrimidin-2-yl)amino)pyridin-3-yl)piperazin-1-yl)sulfonyl)carbamoyl)oxy)acetic acid], the IC50 was at most 200 nM on CDK6/cyclin D1 and 200 to 500 nM at CDK4/cyclin D1.
Consider `CC(=O)c1c(C)c2cnc(Nc3ccc(N4CCN(S(=O)(=O)NC(=O)OCCNC(=O)[C@@H](C)N)CC4)cn3)nc2n(C2CCCC2)c1=O` [Compound A16, (R)-2-(2-Aminopropanamido)ethyl ((4-(6-((6-acetyl-8-cyclopentyl-5-methyl-7-oxo-7,8-dihydropyrido[2,3-d]pyrimidin-2-yl)amino)pyridin-3-yl)piperazin-1-yl)sulfonyl)-carbamate], for which the IC50 on CDK6/cyclin D1 and at CDK4/cyclin D1 was at most 200 nM each time.
Take `CC(=O)c1c(C)c2cnc(Nc3ccc(N4CCN(S(=O)(=O)NC(=O)OCCNC(=O)[C@@H](N)CC(C)C)CC4)cn3)nc2n(C2CCCC2)c1=O` [Compound A17, (S)-2-(2-Amino-4-methylpentanamido)ethyl ((4-(6-((6-acetyl-8-cyclopentyl-5-methyl-7-oxo-7,8-dihydropyrido[2,3-d]pyrimidin-2-yl)amino)pyridin-3-yl)piperazin-1-yl)-sulfonyl)carbamate]: the IC50 on CDK6/cyclin D1 and at CDK4/cyclin D1 was at most 200 nM throughout.
Consider `CC(=O)c1c(C)c2cnc(Nc3ccc(N4CCN(S(=O)(=O)NC(=O)OCCNC(=O)CN)CC4)cn3)nc2n(C2CCCC2)c1=O` [Compound A20, 2-(2-Aminoacetamido)ethyl ((4-(6-((6-acetyl-8-cyclopentyl-5-methyl-7-oxo-7,8-dihydropyrido[2,3-d]pyrimidin-2-yl)amino)pyridin-3-yl)piperazin-1-yl)sulfonyl)carbamate], for which the half-maximal inhibitory concentration (IC50) on CDK6/cyclin D1 and at CDK4/cyclin D1 was at most 200 nM throughout.
For `CC(=O)c1c(C)c2cnc(Nc3ccc(N4CCN(S(=O)(=O)NC(=O)OCCNC(=O)[C@H]5CCCN5)CC4)cn3)nc2n(C2CCCC2)c1=O` [Compound A21, (R)-2-(Pyrrolidine-2-carboxamido)ethyl ((4-(6-((6-acetyl-8-cyclopentyl-5-methyl-7-oxo-7,8-dihydropyrido[2,3-d]pyrimidin-2-yl)amino)pyridin-3-yl)piperazin-1-yl)sulfonyl)-carbamate], the IC50 on CDK6/cyclin D1 and at CDK4/cyclin D1 was at most 200 nM in each case.
As to `CC(=O)c1c(C)c2cnc(Nc3ccc(N4CCN(S(=O)(=O)NC(=O)C5CC5)CC4)cn3)nc2n(C2CCCC2)c1=O` [Compound A38, N-((4-(6-((6-Acetyl-8-cyclopentyl-5-methyl-7-oxo-7,8-dihydropyrido[2,3-d]-pyrimidin-2-yl)amino)pyridin-3-yl)piperazin-1-yl)sulfonyl)cyclopropanecarboxamide], the IC50 on CDK6/cyclin D1 and at CDK4/cyclin D1 was at most 200 nM throughout.
`CC(=O)c1c(C)c2cnc(Nc3ccc(N4CCN(S(=O)(=O)NC(=O)C5CCOCC5)CC4)cn3)nc2n(C2CCCC2)c1=O` [Compound A40, N-((4-(6-((6-Acetyl-8-cyclopentyl-5-methyl-7-oxo-7,8-dihydropyrido[2,3-d]-pyrimidin-2-yl)amino)pyridin-3-yl)piperazin-1-yl)sulfonyl)tetrahydro-2H-pyran-4-carboxamide]: the 50% inhibitory concentration (IC50) at CDK6/cyclin D1 and on CDK4/cyclin D1 was at most 200 nM throughout.
Regarding `CNS(=O)(=O)N1CCN(c2ccc(Nc3ncc4c(C)c(C(C)=O)c(=O)n(C5CCCC5)c4n3)nc2)CC1` [Compound A46, 4-(6-((6-Acetyl-8-cyclopentyl-5-methyl-7-oxo-7,8-dihydropyrido[2,3-d]-pyrimidin-2-yl)amino)pyridin-3-yl)-N-methylpiperazine-1-sulfonamide], the IC50 is 200 to 500 nM at CDK6/cyclin D1 and at most 200 nM at CDK4/cyclin D1.
As to `CC(=O)c1c(C)c2cnc(Nc3ccc(N4CCN(S(=O)(=O)N(C)C)CC4)cn3)nc2n(C2CCCC2)c1=O` [Compound A50, 4-(6-((6-Acetyl-8-cyclopentyl-5-methyl-7-oxo-7,8-dihydropyrido[2,3-d]-pyrimidin-2-yl)amino)pyridin-3-yl)-N,N-dimethylpiperazine-1-sulfonamide], the IC50 at CDK6/cyclin D1 and at CDK4/cyclin D1 was 200 to 500 nM in each case.
Take `CC(=O)c1c(C)c2cnc(Nc3ccc(N4CCN(S(=O)(=O)n5ccnc5N)CC4)cn3)nc2n(C2CCCC2)c1=O` [Compound A57, 6-Acetyl-2-((5-(4-((2-amino-1H-imidazol-1-yl)sulfonyl)piperazin-1-yl)pyridin-2-yl)amino)-8-cyclopentyl-5-methylpyrido[2,3-d]pyrimidin-7(8H)-one]: the IC50 at CDK6/cyclin D1 and on CDK4/cyclin D1 was at most 200 nM throughout.
Consider `CC(=O)c1c(C)c2cnc(Nc3ccc(N4CCN(S(=O)(=O)n5ccnc5)CC4)cn3)nc2n(C2CCCC2)c1=O` [Compound A58, 2-((5-(4-((1H-Imidazol-1-yl)sulfonyl)piperazin-1-yl)pyridin-2-yl)amino)-6-acetyl-8-cyclopentyl-5-methylpyrido[2,3-d]pyrimidin-7(8H)-one], for which the concentration for a half-maximal effect (EC50) in assay [1] was at most 1000 nM.
For `CC(=O)c1c(C)c2cnc(Nc3ccc(N4CCN(S(=O)(=O)OC5CCCC5)CC4)cn3)nc2n(C2CCCC2)c1=O` [Compound B4, Cyclopentyl 4-(6-((6-acetyl-8-cyclopentyl-5-methyl-7-oxo-7,8-dihydropyrido[2,3-d]pyrimidin-2-yl)amino)pyridin-3-yl)piperazine-1-sulfonate], the IC50 is 200 to 500 nM at CDK6/cyclin D1 and at most 200 nM at CDK4/cyclin D1.
On to `CC(=O)c1c(C)c2cnc(Nc3ccc(N4CCN(S(=O)(=O)C(C)C)CC4)cn3)nc2n(C2CCCC2)c1=O` [Compound C1, 6-acetyl-8-cyclopentyl-2-[[5-(4-isopropylsulfonylpiperazin-1-yl)-2-pyridyl]-amino]-5-methylpyrido[2,3-d]pyrimidin-7-one], for which the IC50 on CDK6/cyclin D1 and at CDK4/cyclin D1 was at most 200 nM in each case.

These data come from patent publication US20250289813A1, “CDK INHIBITORS, PHARMACEUTICAL COMPOSITIONS, AND THERAPEUTIC APPLICATIONS” (ONQUALITY PHARMACEUTICALS CHINA LTD., priority 2022, published 2025).
